Assay: Mass balance (excretion of total radioactivity) after 2-h IV infusion of [^14C]brincidofovir
Format: in vivo, male Sprague Dawley rats
Description: All animals were obtained from Hilltop Lab Animals, Inc. (Scottdale, Pa.). Rats weighed between 214 and 265 g at dosing. […] Three dosing formulations (one for high dose IV, one for low dose IV, and one for PO dose) were prepared at QPS on the day of dosing. […] The IV dose formulation for Group 5 and the PO dose formulation for Groups 6 and 7 contained higher concentration of buffer so that the final buffer concentration was approximately 10 mM in all dose formulations. […] Urine samples were collected from each animal into pre-labeled urine collection tubes at pre-dose (overnight) and at intervals of 0-8 h, 8-24 h, and at every subsequent 24 h interval until 168 h post-dose. All urine specimens were collected over dry ice. The total weight of each urine collection was documented, and the samples were stored frozen at approximately −70° C. until LSC analysis. Samples were maintained at approximately −70° C. following analysis, and were saved for further analysis, to be conducted under a separate protocol. Feces samples were collected from each animal into a pre-labeled feces collection tube at pre-dose (overnight) and at 24 h intervals post-dose until 168 h post-dose. Feces specimens were collected over dry ice and the total weight of each feces sample was documented. Feces samples were stored at approximately −70° C. until homogenization and LSC analysis, were maintained at approximately −70° C. following analysis, and were saved for further analysis, to be conducted under a separate protocol. Feces were homogenized and analyzed for total radioactivity content. […] The actual weights of the individual aliquots and the amount of solvent used in homogenization were recorded. Pre-weighed portions of each feces homogenate were placed into a CombustoCone® that contained a CombustoPad®, allowed to dry over-night in a fume hood, and were burned completely in the sample oxidizer. […] Volumes or weights of sample aliquots were documented in the study records.

With `CCCCCCCCCCCCCCCCOCCCOP(=O)(O)CO[C@H](CO)Cn1ccc(N)nc1=O` [[^14C]brincidofovir] as the compound, how does the “Radioactivity recovered in feces” value (15 mg/kg 2-h IV, 168 h) read?
Its value is 42.2 % of administered dose.

What about the “Radioactivity recovered in urine” value (15 mg/kg 2-h IV, 168 h) of the same compound?
The value was 51.2 % of administered dose.

And the “Total recovery in urine and feces combined” value (168 h)?
The value was 93.5 % of the dose.

And the “Percent Recovery of total radioactivity” value (Feces 0-24 h, Mean, 15 mg/kg IV)?
Its value is 36.7 % Dose.

What about the “Percent Recovery of total radioactivity” value (Feces 0-24 h, Rat 01, 15 mg/kg IV) of the same compound?
The value was 37.3 % Dose.

What about the “Percent Recovery of total radioactivity” value (Feces 0-24 h, Rat 02, 15 mg/kg IV) of the same compound?
The value was 37.6 % Dose.

And the “Percent Recovery of total radioactivity” value (Feces 0-24 h, Rat 03, 15 mg/kg IV)?
Its value is 35.1 % Dose.

What about the “Percent Recovery of total radioactivity” value (Feces 24-48 h, Mean, 15 mg/kg IV) of the same compound?
The value was 3.8 % Dose.

And the “Percent Recovery of total radioactivity” value (Feces 24-48 h, Rat 01, 15 mg/kg IV)?
The value was 3.4 % Dose.

What about the “Percent Recovery of total radioactivity” value (Feces 24-48 h, Rat 02, 15 mg/kg IV) of the same compound?
Its value is 4.6 % Dose.

What about the “Percent Recovery of total radioactivity” value (Feces 24-48 h, Rat 03, 15 mg/kg IV) of the same compound?
Its value is 3.5 % Dose.

And the “Percent Recovery of total radioactivity” value (Feces 48-72 h, Mean, 15 mg/kg IV)?
Its value is 0.9 % Dose.

And the “Percent Recovery of total radioactivity” value (Feces 48-72 h, Rat 01, 15 mg/kg IV)?
The value was 0.9 % Dose.

What about the “Percent Recovery of total radioactivity” value (Feces 48-72 h, Rat 02, 15 mg/kg IV) of the same compound?
The value was 1.0 % Dose.

And the “Percent Recovery of total radioactivity” value (Feces 48-72 h, Rat 03, 15 mg/kg IV)?
Its value is 0.8 % Dose.

And the “Percent Recovery of total radioactivity” value (Feces 72-96 h, Mean, 15 mg/kg IV)?
The value was 0.4 % Dose.

What about the “Percent Recovery of total radioactivity” value (Feces 72-96 h, Rat 01, 15 mg/kg IV) of the same compound?
Its value is 0.4 % Dose.

And the “Percent Recovery of total radioactivity” value (Feces 72-96 h, Rat 02, 15 mg/kg IV)?
Its value is 0.4 % Dose.

What about the “Percent Recovery of total radioactivity” value (Feces 72-96 h, Rat 03, 15 mg/kg IV) of the same compound?
The value was 0.4 % Dose.

And the “Percent Recovery of total radioactivity” value (Feces 96-120 h, Mean, 15 mg/kg IV)?
Its value is 0.2 % Dose.

And the “Percent Recovery of total radioactivity” value (Feces 96-120 h, Rat 01, 15 mg/kg IV)?
The value was 0.2 % Dose.

What about the “Percent Recovery of total radioactivity” value (Feces 96-120 h, Rat 02, 15 mg/kg IV) of the same compound?
The value was 0.2 % Dose.

What about the “Percent Recovery of total radioactivity” value (Feces 96-120 h, Rat 03, 15 mg/kg IV) of the same compound?
Its value is 0.2 % Dose.

What about the “Percent Recovery of total radioactivity” value (Feces 120-144 h, Mean, 15 mg/kg IV) of the same compound?
The value was 0.1 % Dose.

And the “Percent Recovery of total radioactivity” value (Feces 120-144 h, Rat 01, 15 mg/kg IV)?
Its value is 0.1 % Dose.

And the “Percent Recovery of total radioactivity” value (Feces 120-144 h, Rat 02, 15 mg/kg IV)?
The value was 0.1 % Dose.

And the “Percent Recovery of total radioactivity” value (Feces 120-144 h, Rat 03, 15 mg/kg IV)?
The value was 0.1 % Dose.

What about the “Percent Recovery of total radioactivity” value (Feces 144-168 h, Mean, 15 mg/kg IV) of the same compound?
Its value is 0.1 % Dose.

And the “Percent Recovery of total radioactivity” value (Feces 144-168 h, Rat 01, 15 mg/kg IV)?
Its value is 0.1 % Dose.

And the “Percent Recovery of total radioactivity” value (Feces 144-168 h, Rat 02, 15 mg/kg IV)?
The value was 0.1 % Dose.

And the “Percent Recovery of total radioactivity” value (Feces 144-168 h, Rat 03, 15 mg/kg IV)?
The value was 0.1 % Dose.

And the “Percent Recovery of total radioactivity” value (Feces Subtotal (0-168 h), Mean, 15 mg/kg IV)?
The value was 42.2 % Dose.

And the “Percent Recovery of total radioactivity” value (Feces Subtotal (0-168 h), Rat 01, 15 mg/kg IV)?
Its value is 42.4 % Dose.

And the “Percent Recovery of total radioactivity” value (Feces Subtotal (0-168 h), Rat 02, 15 mg/kg IV)?
The value was 44.2 % Dose.

And the “Percent Recovery of total radioactivity” value (Feces Subtotal (0-168 h), Rat 03, 15 mg/kg IV)?
Its value is 40.2 % Dose.

What about the “Percent Recovery of total radioactivity” value (Total urine + feces (0-168 h), Mean, 15 mg/kg IV) of the same compound?
Its value is 93.5 % Dose.

What about the “Percent Recovery of total radioactivity” value (Total urine + feces (0-168 h), Rat 01, 15 mg/kg IV) of the same compound?
The value was 93.6 % Dose.

What about the “Percent Recovery of total radioactivity” value (Total urine + feces (0-168 h), Rat 02, 15 mg/kg IV) of the same compound?
The value was 91.6 % Dose.

What about the “Percent Recovery of total radioactivity” value (Total urine + feces (0-168 h), Rat 03, 15 mg/kg IV) of the same compound?
Its value is 95.2 % Dose.

What about the “Percent Recovery of total radioactivity” value (Urine 0-8 h, Mean, 15 mg/kg IV) of the same compound?
The value was 31.0 % Dose.

What about the “Percent Recovery of total radioactivity” value (Urine 0-8 h, Rat 01, 15 mg/kg IV) of the same compound?
The value was 33.0 % Dose.

And the “Percent Recovery of total radioactivity” value (Urine 0-8 h, Rat 02, 15 mg/kg IV)?
Its value is 29.3 % Dose.

What about the “Percent Recovery of total radioactivity” value (Urine 0-8 h, Rat 03, 15 mg/kg IV) of the same compound?
The value was 30.7 % Dose.

What about the “Percent Recovery of total radioactivity” value (Urine 8-24 h, Mean, 15 mg/kg IV) of the same compound?
Its value is 12.8 % Dose.

And the “Percent Recovery of total radioactivity” value (Urine 8-24 h, Rat 01, 15 mg/kg IV)?
The value was 10.7 % Dose.

And the “Percent Recovery of total radioactivity” value (Urine 8-24 h, Rat 02, 15 mg/kg IV)?
Its value is 11.5 % Dose.

And the “Percent Recovery of total radioactivity” value (Urine 8-24 h, Rat 03, 15 mg/kg IV)?
The value was 16.2 % Dose.

And the “Percent Recovery of total radioactivity” value (Urine 24-48 h, Mean, 15 mg/kg IV)?
The value was 4.1 % Dose.

What about the “Percent Recovery of total radioactivity” value (Urine 24-48 h, Rat 01, 15 mg/kg IV) of the same compound?
Its value is 4.3 % Dose.

And the “Percent Recovery of total radioactivity” value (Urine 24-48 h, Rat 02, 15 mg/kg IV)?
Its value is 3.6 % Dose.

And the “Percent Recovery of total radioactivity” value (Urine 24-48 h, Rat 03, 15 mg/kg IV)?
Its value is 4.5 % Dose.

And the “Percent Recovery of total radioactivity” value (Urine 48-72 h, Mean, 15 mg/kg IV)?
Its value is 1.7 % Dose.

What about the “Percent Recovery of total radioactivity” value (Urine 48-72 h, Rat 01, 15 mg/kg IV) of the same compound?
The value was 1.6 % Dose.

And the “Percent Recovery of total radioactivity” value (Urine 48-72 h, Rat 02, 15 mg/kg IV)?
Its value is 1.6 % Dose.

And the “Percent Recovery of total radioactivity” value (Urine 48-72 h, Rat 03, 15 mg/kg IV)?
Its value is 1.9 % Dose.

And the “Percent Recovery of total radioactivity” value (Urine 72-96 h, Mean, 15 mg/kg IV)?
Its value is 0.8 % Dose.

What about the “Percent Recovery of total radioactivity” value (Urine 72-96 h, Rat 01, 15 mg/kg IV) of the same compound?
The value was 0.8 % Dose.

And the “Percent Recovery of total radioactivity” value (Urine 72-96 h, Rat 02, 15 mg/kg IV)?
The value was 0.8 % Dose.

What about the “Percent Recovery of total radioactivity” value (Urine 72-96 h, Rat 03, 15 mg/kg IV) of the same compound?
The value was 0.8 % Dose.

And the “Percent Recovery of total radioactivity” value (Urine 96-120 h, Mean, 15 mg/kg IV)?
Its value is 0.4 % Dose.

And the “Percent Recovery of total radioactivity” value (Urine 96-120 h, Rat 01, 15 mg/kg IV)?
The value was 0.4 % Dose.

And the “Percent Recovery of total radioactivity” value (Urine 96-120 h, Rat 02, 15 mg/kg IV)?
The value was 0.3 % Dose.

And the “Percent Recovery of total radioactivity” value (Urine 96-120 h, Rat 03, 15 mg/kg IV)?
Its value is 0.5 % Dose.

What about the “Percent Recovery of total radioactivity” value (Urine 120-144 h, Mean, 15 mg/kg IV) of the same compound?
Its value is 0.2 % Dose.

And the “Percent Recovery of total radioactivity” value (Urine 120-144 h, Rat 01, 15 mg/kg IV)?
Its value is 0.2 % Dose.

What about the “Percent Recovery of total radioactivity” value (Urine 120-144 h, Rat 02, 15 mg/kg IV) of the same compound?
Its value is 0.2 % Dose.

And the “Percent Recovery of total radioactivity” value (Urine 120-144 h, Rat 03, 15 mg/kg IV)?
Its value is 0.3 % Dose.

What about the “Percent Recovery of total radioactivity” value (Urine 144-168 h, Mean, 15 mg/kg IV) of the same compound?
Its value is 0.2 % Dose.

And the “Percent Recovery of total radioactivity” value (Urine 144-168 h, Rat 01, 15 mg/kg IV)?
The value was 0.2 % Dose.

And the “Percent Recovery of total radioactivity” value (Urine 144-168 h, Rat 02, 15 mg/kg IV)?
The value was 0.1 % Dose.

And the “Percent Recovery of total radioactivity” value (Urine 144-168 h, Rat 03, 15 mg/kg IV)?
The value was 0.2 % Dose.

And the “Percent Recovery of total radioactivity” value (Urine Subtotal (0-168 h), Mean, 15 mg/kg IV)?
The value was 51.2 % Dose.

What about the “Percent Recovery of total radioactivity” value (Urine Subtotal (0-168 h), Rat 01, 15 mg/kg IV) of the same compound?
Its value is 51.2 % Dose.

And the “Percent Recovery of total radioactivity” value (Urine Subtotal (0-168 h), Rat 02, 15 mg/kg IV)?
The value was 47.5 % Dose.

And the “Percent Recovery of total radioactivity” value (Urine Subtotal (0-168 h), Rat 03, 15 mg/kg IV)?
Its value is 55.1 % Dose.

What about the “Fecal excretion in first 24 h” value (rat, in vivo) of the same compound?
Its value is 36.7 % of the dose.

What about the “Fecal excretion in first 24 h, share of radioactivity excreted in feces” value (rat, in vivo) of the same compound?
The value was 87%.

What about the “Share of urinary and fecal excretion in first 24 h” value (rat, in vivo) of the same compound?
Its value is ~86%.

And the “Urinary excretion in first 24 h” value (rat, in vivo)?
The value was 43.8 % of the dose.

What about the “Urinary excretion in first 24 h, share of radioactivity excreted in urine” value (rat, in vivo) of the same compound?
The value was 86%.
